# Article PMC5011342, “A high throughput drug screening assay to identify compounds that promote oligodendrocyte differentiation using acutely dissociated and purified oligodendrocyte precursor cells” (BMC Research Notes, 2016)
# Where two headings read alike, the source gives them in different places.
# What was measured:
# [1] = tested on: acutely dissociated and purified rat OPCs; test: Acute OL differentiation assay (MBP expression/cell, immunofluorescent image quantification); assay type: cell-based; conditions: sheet "All OLga data"; for activation at 0.4 µM / activation at 2 µM / activation at 10 µM: Rattus norvegicus; for activation at 0.4 µM: 0.4 uM test compound, read-out: OL differentiation, 0.4 uM (% Quet)
# How it was run: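 This acute differentiation assay used purified rat OPCs from postnatal day 6–7 pups, seeded into PDL/laminin-coated 96-well plates in differentiation medium lacking PDGF and FGF. Compounds were applied in quadruplicate after a 1–2 h preincubation at 37 °C, 10 % CO2, with 0.1 % DMSO negative and 40 ng/ml T3 positive controls in eight wells. After fixation on DIV4, anti-MBP immunofluorescence images yielded MBP expression/cell.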
# expanded OPCs = test: cells; conditions: for viability at 0.1 µM / viability at 1 µM / viability at 10 µM: Rattus norvegicus, 72 h
# How it was run: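 Toxicity screen: compounds added at 0.1, 1 and 10 µM to PDGF-AA-expanded OPCs in 96-well plates, 3-day incubation at 37 °C, 10% CO2, then alamarBlue 1:10 for 4 h with fluorescence readout. Results set screening doses of 10/2, 2/0.4 or 0.4/0.08 µM.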
# [2] = 2 uM test compound, relative to quetiapine, read-out: OL differentiation, 2 uM (% Quet)
# [3] = read-out: 0.1 µM (% DMSO), alamarBlue viability of expanded OPCs, compound at 0.1 µM, sheet All Tox data
# [4] = read-out: 1 µM (% DMSO), alamarBlue viability of expanded OPCs, compound at 1 µM, sheet All Tox data
# [5] = read-out: 10 µM (% DMSO), alamarBlue viability of expanded OPCs, compound at 10 µM, sheet All Tox data
# [6] = read-out: 0.1 µM (% DMSO), alamarBlue viability, NCC library compound at 0.1 µM, sheet "All Tox data"
# [7] = read-out: 1 µM (% DMSO), alamarBlue viability, NCC library compound at 1 µM, sheet "All Tox data"
# [8] = read-out: 10 µM (% DMSO), alamarBlue viability, NCC library compound at 10 µM, sheet "All Tox data"
# [9] = test compound at 2 uM, NCC library screen, relative to quetiapine, read-out: 2 uM (% Quet)
# [10] = test compound at 10 uM, NCC library screen, relative to quetiapine, read-out: 10 uM (% Quet)
# [11] = test compound at 2 uM, MBP expression relative to quetiapine, NCC library screen, read-out: 2 uM (% Quet)
# [12] = test compound at 10 uM, MBP expression relative to quetiapine, NCC library screen, read-out: 10 uM (% Quet)
# [13] = alamarBlue viability of expanded OPCs, compound at 0.1 µM, relative to DMSO control
# [14] = alamarBlue viability of expanded OPCs, compound at 1 µM, relative to DMSO control
# [15] = alamarBlue viability of expanded OPCs, compound at 10 µM, relative to DMSO control
Compound,"activation at 2 µM [1, 2] [%]",viability at 0.1 µM (expanded OPCs; [6]) [%],viability at 1 µM (expanded OPCs; [7]) [%],viability at 10 µM (expanded OPCs; [8]) [%],"activation at 2 µM [1, 9] [%]","activation at 10 µM [1, 10] [%]",further results
CN1CCN(c2nc3cc(C(F)(F)F)ccc3n3cccc23)CC1.O=C(O)/C=C\C(=O)O.O=C(O)/C=C\C(=O)O [CGS-12066B],,,,,,,"0.08 uM (% Quet) ([1]; test compound at 0.08 uM, NCC library screen, relative to quetiapine): 28.1 % Quet; 0.4 uM (% Quet) ([1]; test compound at 0.4 uM, NCC library screen, relative to quetiapine): -50.5 % Quet; 0.1 µM (% DMSO) (expanded OPCs; alamarBlue viability, NCC library compound at 0.1 µM, sheet ""All Tox data""): 78.7 % DMSO; 1 µM (% DMSO) (expanded OPCs; alamarBlue viability, NCC library compound at 1 µM, sheet ""All Tox data""): 44.5 % DMSO; 10 µM (% DMSO) (expanded OPCs; alamarBlue viability, NCC library compound at 10 µM, sheet ""All Tox data""): 16.9 % DMSO"
C=C1/C(=C\C=C2/CCC[C@]3(C)[C@@H]([C@H](C)/C=C/[C@@H](O)C4CC4)CC[C@@H]23)C[C@@H](O)C[C@@H]1O [Calcipotriene],-7.8,,,,,,activation at 0.4 µM ([1]; relative to quetiapine): 14.8%; viability at 0.1 µM (expanded OPCs; [3]): 98.3%; viability at 1 µM (expanded OPCs; [4]): 89%; viability at 10 µM (expanded OPCs; [5]): 11.5%
C=C1/C(=C\C=C2/CCC[C@]3(C)[C@@H]([C@H](C)CCCC(C)(C)O)CC[C@@H]23)C[C@@H](O)C[C@@H]1O [Calcitriol],30.3,99.4,108,11,,,activation at 0.4 µM ([1]; relative to quetiapine): 8.9%
C[C@H](CS)C(=O)N1CCC[C@H]1C(=O)O [Captopril],,90.7,93.2,99.1,8,8.4,
NC(=O)N1c2ccccc2C=Cc2ccccc21 [Carbamazepine],,,,,,,"activation at 2 µM [1, 11]: -5.2%; activation at 10 µM [1, 12]: -13.7%; 0.1 µM (% DMSO) (expanded OPCs; [13]): 107.0 % DMSO; 1 µM (% DMSO) (expanded OPCs; [14]): 99.7 % DMSO; 10 µM (% DMSO) (expanded OPCs; [15]): 103.7 % DMSO"
C[C@@](Cc1ccc(O)c(O)c1)(NN)C(=O)O [Carbidopa],,,,,,,"activation at 2 µM [1, 11]: -35.6%; activation at 10 µM [1, 12]: -121%; 0.1 µM (% DMSO) (expanded OPCs; [13]): 108.9 % DMSO; 1 µM (% DMSO) (expanded OPCs; [14]): 101.2 % DMSO; 10 µM (% DMSO) (expanded OPCs; [15]): 82.3 % DMSO"
CN(C)CCOC(c1ccc(Cl)cc1)c1ccccn1 (stereo not drawn) [Carbinoxamine],,92.8,73.8,57.6,7.4,-28.8,
CCCC(C)(COC(N)=O)COC(=O)NC(C)C (stereo not drawn) [Carisoprodol],,,,,,,"activation at 2 µM [1, 11]: -33%; activation at 10 µM [1, 12]: -33%; 0.1 µM (% DMSO) (expanded OPCs; [13]): 92.1 % DMSO; 1 µM (% DMSO) (expanded OPCs; [14]): 90.4 % DMSO; 10 µM (% DMSO) (expanded OPCs; [15]): 89.3 % DMSO"
CCCCCCNC(=O)n1cc(F)c(=O)[nH]c1=O [Carmofur],-84.8,,,,,,activation at 0.4 µM ([1]; relative to quetiapine): -28.7%; viability at 0.1 µM (expanded OPCs; [3]): 90.5%; viability at 1 µM (expanded OPCs; [4]): 76.1%; viability at 10 µM (expanded OPCs; [5]): 14.6%
COc1ccccc1OCCNCC(O)COc1cccc2[nH]c3ccccc3c12 (stereo not drawn) [Carvedilol],-95.9,,,,,,activation at 0.4 µM ([1]; relative to quetiapine): -16.1%; viability at 0.1 µM (expanded OPCs; [3]): 101%; viability at 1 µM (expanded OPCs; [4]): 54.5%; viability at 10 µM (expanded OPCs; [5]): 12%
N[C@@H](C(=O)N[C@@H]1C(=O)N2C(C(=O)O)=C(Cl)CS[C@H]12)c1ccccc1 [Cefaclor],,90.3,94.6,106,-10.8,27.4,
N[C@@H](C(=O)N[C@@H]1C(=O)N2C(C(=O)O)=C(CSc3c[nH]nn3)CS[C@H]12)c1ccc(O)cc1 [Cefatrizine],11.1,,,,,,"activation at 10 µM ([1]; 10 uM test compound, relative to quetiapine, read-out: OL differentiation, 10 uM (% Quet)): -10.4%; viability at 0.1 µM (expanded OPCs; [3]): 99.1%; viability at 1 µM (expanded OPCs; [4]): 95.1%; viability at 10 µM (expanded OPCs; [5]): 104%"
Cc1nnc(SCC2=C(C(=O)O)N3C(=O)[C@@H](NC(=O)Cn4cnnn4)[C@H]3SC2)s1 [Cefazolin],,95.1,92.5,96.9,6.4,0.95,
C=CC1=C(C(=O)O)N2C(=O)[C@@H](NC(=O)/C(=N\O)c3csc(N)n3)[C@H]2SC1 [Cefdinir],,86.5,90.2,84.8,13.5,23,
C=CC1=C(C(=O)O)N2C(=O)[C@@H](NC(=O)/C(=N\OCC(=O)O)c3csc(N)n3)[C@H]2SC1 [Cefixime],,82.1,68.5,67.3,6.6,63.5,
